Experimental data as given in patent US9511134B2, “Inducing immune responses to influenza virus using polypeptide and nucleic acid compositions” (priority 2006, dated 2016).

Tests used:
Test in all cases: biochemical
Format in all cases: binding
DRB1*0101 = molecular target: T1, DRB1*0101 (Homo sapiens, UniProt P01903+P01911, A100R/D57E/F55L/F60I/F76Y/I96L/L162R/M171V/P40L/Q125E/R42F/V115G/Y59C); conditions: IC50 nM to purified HLA DRB1*0101
T1 construct: made in house; host or cells: EBV-transformed homozygous human B cell lines, transfected fibroblasts or single-allele 721.221 transfectants

DRB1*0301 = molecular target: T2, DRB1*0301 (Homo sapiens, UniProt P01903+P01911, A100K/A102G/A103R/A169T/F55Y/I96L/K41T/L162R/M171V/P40S/Q125H/Q178H/Q39Y/R42S/S66N/T106N/T262R/W38E/Y61H)
T2 construct: made in house; host or cells: EBV-transformed homozygous human B cell lines, transfected fibroblasts or single-allele 721.221 transfectants
T2 sequence (P01903 26-254, other chains not shown): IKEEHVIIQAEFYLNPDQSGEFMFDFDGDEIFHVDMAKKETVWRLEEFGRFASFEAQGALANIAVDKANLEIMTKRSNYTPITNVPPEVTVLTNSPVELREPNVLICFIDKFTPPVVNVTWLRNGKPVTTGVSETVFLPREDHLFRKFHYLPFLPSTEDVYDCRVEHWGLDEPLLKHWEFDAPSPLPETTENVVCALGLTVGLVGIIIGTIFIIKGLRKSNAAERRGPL

DRB1*0401 = molecular target: T3, DRB1*0401 (Homo sapiens, UniProt P01903+P01911, A100K/A169T/F76Y/I96L/K127E/L162R/M171V/N62H/P40V/Q125Y/R42H/S133A/S149N/S66Y/V115G/V209L/W38E); conditions: read-out: IC50 nM to purified HLA DRB1*0401
T3 construct: made in house; host or cells: EBV-transformed homozygous human B cell lines, transfected fibroblasts or single-allele 721.221 transfectants

DRB1*0404 = DRB1*0404 (Homo sapiens, UniProt P01903+P01911, A100R/A169T/F76Y/I96L/K127E/L162R/M171V/N62H/P40V/Q125Y/R42H/S133A/S149N/S66Y/V209L/W38E); conditions: IC50 nM to purified HLA DRB1*0404
DRB1*0405 = DRB1*0405 (Homo sapiens, UniProt P01903+P01911, A100R/A169T/D86S/F76Y/I96L/K127E/L162R/M171V/N62H/P40V/Q125Y/R42H/S133A/S149N/S66Y/V115G/V209L/W38E); conditions: read-out: IC50 nM to purified HLA DRB1*0405
DRB1*1302 = DRB1*1302 (Homo sapiens, UniProt P01903+P01911, A100E/A169T/K41T/L162R/M171V/P40S/Q125H/Q178H/Q39Y/Q99D/R42S/S66N/T262R/V115G/W38E/Y61H); conditions: read-out: IC50 nM to purified HLA DRB1*1302
Chain of DRB1*1302 (P01903 26-254 limits assumed, other chains not shown): as the sequence (P01903 26-254, other chains not shown) above

DRB1*1101 = DRB1*1101 (Homo sapiens, UniProt P01903+P01911, A100R/A169T/A87E/I96F/K41T/L162R/M171V/P40S/Q125H/Q178H/Q39Y/Q99D/R42S/S66Y/T262R/V115G/W38E); conditions: read-out: IC50 nM to purified HLA DRB1*1101
Chain of DRB1*1101 (P01903 26-254 limits assumed, other chains not shown): as the sequence (P01903 26-254, other chains not shown) above

DRB5*0101 = molecular target: T4, DRB5*0101 (Homo sapiens, UniProt P01903+Q30154)
T4 construct: made in house; host or cells: EBV-transformed homozygous human B cell lines, transfected fibroblasts or single-allele 721.221 transfectants

DRB1*0701 = DRB1*0701 (Homo sapiens, UniProt P01903+P01911, A100R/A102G/A103Q/D57E/D86V/E43K/F76Y/K127E/L162R/M171V/P40G/Q125H/Q99D/R33Q/R42Y/R54Q/S133A/S66F/T210M/V115G/Y107V/Y59L/Y89S)

Compound	IC50 (DRB1*0101) [nM]	IC50 (DRB1*0301) [nM]	IC50 (DRB1*0401) [nM]	IC50 (DRB1*0404) [nM]	IC50 (DRB1*0405) [nM]	IC50 (DRB1*1302) [nM]	IC50 (DRB1*1101) [nM]	IC50 (DRB5*0101) [nM]	IC50 (DRB1*0701) [nM]
CC[C@H](C)[C@H](NC(=O)[C@H](CCC(=O)O)NC(=O)[C@H](CCC(N)=O)NC(=O)[C@H](CCC(=O)O)NC(=O)[C@@H](NC(=O)[C@H](CCC(=O)O)NC(=O)[C@H](CC(C)C)NC(=O)[C@H](CC(C)C)NC(=O)[C@H](CC(C)C)NC(=O)[C@@H](N)CCC(N)=O)C(C)C)C(=O)N[C@@H](CCCNC(=N)N)C(=O)N[C@H](C(=O)N[C@@H](Cc1ccccc1)C(=O)N[C@@H](CO)C(=O)N[C@@H](Cc1ccccc1)C(=O)O)[C@@H](C)O [Flu.NS2.180]	11900	792	13900	1600	5140	–	–	–	–
CC[C@H](C)[C@H](NC(=O)[C@H](CCSC)NC(=O)[C@@H]1CCCN1C(=O)[C@H](CC(N)=O)NC(=O)[C@@H](N)Cc1ccccc1)C(=O)N[C@H](C(=O)N[C@@H](CCC(=O)O)C(=O)N[C@@H](CC(C)C)C(=O)N[C@@H](C)C(=O)N[C@@H](CCC(=O)O)C(=O)N[C@@H](CCCCN)C(=O)N[C@H](C(=O)N[C@@H](CCSC)C(=O)N[C@@H](CCCCN)C(=O)N[C@@H](CCC(=O)O)C(=O)O)[C@@H](C)O)C(C)C [Flu.PA.12]	48	744	29	610	1240	1250	–	–	–
CC[C@H](C)[C@H](NC(=O)[C@H](CCC(=O)O)NC(=O)[C@H](Cc1ccccc1)NC(=O)[C@@H](N)CCCNC(=N)N)C(=O)N[C@H](C(=O)NCC(=O)N[C@H](C(=O)N[C@@H](CCSC)C(=O)N[C@@H](CCCNC(=N)N)C(=O)N[C@@H](CCCNC(=N)N)C(=O)N[C@@H](CC(C)C)C(=O)N[C@@H](C)C(=O)N[C@@H](CC(=O)O)C(=O)N[C@@H](CCC(N)=O)C(=O)N[C@@H](CO)C(=O)O)[C@@H](C)O)[C@@H](C)O [Flu.PA.207]	–	–	–	–	–	–	19	9.2	–
CC(C)[C@H](NC(=O)[C@H](CCC(=O)O)NC(=O)[C@H](C)NC(=O)[C@@H](NC(=O)[C@H](Cc1ccccc1)NC(=O)[C@H](Cc1ccc(O)cc1)NC(=O)[C@H](CC(N)=O)NC(=O)[C@@H](N)CCCNC(=N)N)[C@@H](C)O)C(=O)N[C@@H](CO)C(=O)N[C@@H](Cc1c[nH]cn1)C(=O)N[C@@H](CS)C(=O)N[C@@H](CCCNC(=N)N)C(=O)N[C@@H](C)C(=O)N[C@H](C(=O)N[C@@H](CCC(=O)O)C(=O)O)[C@@H](C)O [Flu.PA.446]	627	883	45	7600	5720	–	–	–	–
CC[C@H](C)[C@H](NC(=O)[C@H](CCSC)NC(=O)[C@H](CO)NC(=O)[C@@H](N)CCC(=O)O)C(=O)N[C@@H](CCC(=O)O)C(=O)N[C@@H](C)C(=O)N[C@@H](CCC(=O)O)C(=O)N[C@@H](CO)C(=O)N[C@@H](CO)C(=O)N[C@H](C(=O)N[C@@H](CCCCN)C(=O)N[C@@H](CCC(=O)O)C(=O)N[C@@H](CCCCN)C(=O)N[C@@H](CC(=O)O)C(=O)N[C@@H](CCSC)C(=O)O)C(C)C [Flu.PA.596]	–	–	–	121	72	–	12000	600	–
CC[C@H](C)[C@H](NC(=O)CNC(=O)[C@@H]1CCCN1C(=O)[C@H](Cc1c[nH]cn1)NC(=O)[C@H](CO)NC(=O)[C@H](CCC(=O)O)NC(=O)[C@H](CCC(=O)O)NC(=O)[C@H](CC(C)C)NC(=O)[C@H](Cc1ccccc1)NC(=O)[C@H](C)NC(=O)[C@H](CCSC)NC(=O)[C@H](C)N)C(=O)N[C@@H](Cc1ccccc1)C(=O)N[C@@H](CCC(=O)O)C(=O)N[C@@H](CC(N)=O)C(=O)O [Flu.PB1.94]	–	400	–	–	–	–	–	–	84
